How the values were obtained:
[1] = target: Neuronal acetylcholine receptor subunit alpha-7 (Homo sapiens, UniProt P36544); experiment: Binding affinity to alpha7 nAChR (unknown origin)
[2] = target: Neuronal acetylcholine receptor; alpha4/beta2 (Homo sapiens, UniProt P17787+P43681); experiment: Binding affinity to alpha4beta2 nAChR (unknown origin); assay type: protein-complex assay
[3] = target: Muscarinic acetylcholine receptor; experiment: Binding affinity to muscarinic M1/M5 receptor (unknown origin); assay type: protein assay, Homo sapiens
[4] = target: T1, Muscarinic acetylcholine receptor M4 (Homo sapiens, UniProt P08173); experiment: Displacement of [3H]NMS from human muscarinic M4 receptor expressed in CHO cells
T1 sequence (P08173 whole entry): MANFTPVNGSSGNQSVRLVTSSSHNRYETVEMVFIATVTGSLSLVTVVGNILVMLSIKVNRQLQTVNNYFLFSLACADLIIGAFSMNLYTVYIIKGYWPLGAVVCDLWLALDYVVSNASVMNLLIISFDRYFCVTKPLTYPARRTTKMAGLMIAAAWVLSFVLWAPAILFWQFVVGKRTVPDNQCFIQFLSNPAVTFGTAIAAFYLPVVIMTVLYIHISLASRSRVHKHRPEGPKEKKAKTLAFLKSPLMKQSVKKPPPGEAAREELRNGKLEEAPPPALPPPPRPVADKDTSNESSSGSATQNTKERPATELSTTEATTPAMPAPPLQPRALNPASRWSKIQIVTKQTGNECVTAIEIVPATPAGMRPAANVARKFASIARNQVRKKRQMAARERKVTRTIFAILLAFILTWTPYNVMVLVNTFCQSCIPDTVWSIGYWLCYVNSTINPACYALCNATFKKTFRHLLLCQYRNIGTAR

[5] = target: Muscarinic acetylcholine receptor M3 (Homo sapiens, UniProt P20309); experiment: Displacement of [3H]NMS from human muscarinic M3 receptor expressed in CHO cells
[6] = target: T2, Muscarinic acetylcholine receptor M5 (Homo sapiens, UniProt P08912); experiment: Displacement of [3H]NMS from human muscarinic M5 receptor expressed in CHO cells
T2 sequence (P08912 whole entry): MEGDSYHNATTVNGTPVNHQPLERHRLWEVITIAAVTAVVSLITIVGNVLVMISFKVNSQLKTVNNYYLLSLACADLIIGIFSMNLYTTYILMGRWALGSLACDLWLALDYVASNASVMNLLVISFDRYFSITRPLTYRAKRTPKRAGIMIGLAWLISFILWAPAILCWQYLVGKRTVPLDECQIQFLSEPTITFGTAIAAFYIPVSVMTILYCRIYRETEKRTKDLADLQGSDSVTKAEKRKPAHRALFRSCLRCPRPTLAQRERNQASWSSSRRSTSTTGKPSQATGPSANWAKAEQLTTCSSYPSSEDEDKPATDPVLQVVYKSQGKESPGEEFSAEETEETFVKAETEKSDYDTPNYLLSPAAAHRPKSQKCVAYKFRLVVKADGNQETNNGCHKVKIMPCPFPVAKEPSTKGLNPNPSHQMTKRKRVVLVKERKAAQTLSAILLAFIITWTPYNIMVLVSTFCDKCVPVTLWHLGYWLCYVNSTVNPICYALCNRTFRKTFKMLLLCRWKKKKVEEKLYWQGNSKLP

[7] = target: T3, Muscarinic acetylcholine receptor M1 (Homo sapiens, UniProt P11229); experiment: Displacement of [3H]NMS from human muscarinic M1 receptor expressed in CHO cells
T3 sequence (P11229 whole entry): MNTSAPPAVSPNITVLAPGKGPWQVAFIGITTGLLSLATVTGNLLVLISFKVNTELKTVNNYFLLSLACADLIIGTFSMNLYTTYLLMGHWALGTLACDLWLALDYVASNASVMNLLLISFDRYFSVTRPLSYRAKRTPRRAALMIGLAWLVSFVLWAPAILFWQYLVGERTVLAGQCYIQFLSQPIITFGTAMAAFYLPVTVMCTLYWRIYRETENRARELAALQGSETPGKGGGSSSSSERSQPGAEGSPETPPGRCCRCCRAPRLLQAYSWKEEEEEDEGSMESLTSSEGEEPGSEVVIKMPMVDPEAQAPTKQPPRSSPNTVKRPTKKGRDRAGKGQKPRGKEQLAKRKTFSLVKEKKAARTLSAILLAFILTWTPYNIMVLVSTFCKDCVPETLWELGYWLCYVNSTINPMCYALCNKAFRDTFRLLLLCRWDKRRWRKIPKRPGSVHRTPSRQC

[8] = target: T4, Muscarinic acetylcholine receptor M2 (Homo sapiens, UniProt P08172); experiment: Displacement of [3H]NMS from human muscarinic M2 receptor expressed in CHO cells
T4 sequence (P08172 whole entry): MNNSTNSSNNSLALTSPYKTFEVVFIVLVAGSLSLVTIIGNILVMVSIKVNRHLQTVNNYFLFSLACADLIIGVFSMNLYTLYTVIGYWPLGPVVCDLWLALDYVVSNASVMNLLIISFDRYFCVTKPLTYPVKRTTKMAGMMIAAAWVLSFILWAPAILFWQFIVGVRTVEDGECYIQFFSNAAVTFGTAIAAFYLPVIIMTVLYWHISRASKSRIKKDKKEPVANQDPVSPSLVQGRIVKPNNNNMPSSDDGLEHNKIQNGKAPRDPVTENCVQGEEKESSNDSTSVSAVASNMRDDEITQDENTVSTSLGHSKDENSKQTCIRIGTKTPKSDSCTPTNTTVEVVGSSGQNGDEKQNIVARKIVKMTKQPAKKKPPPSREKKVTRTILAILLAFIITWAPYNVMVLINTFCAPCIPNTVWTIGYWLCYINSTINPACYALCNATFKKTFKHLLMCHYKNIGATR

[9] = target: Neuronal acetylcholine receptor subunit alpha-7 (Rattus norvegicus, UniProt Q05941); experiment: Displacement of [125I]-alpha-bungarotoxin from alpha7 nAChR in rat hippocampus membranes; assay type: cell membranes, Membrane
[10] = target: Neuronal acetylcholine receptor; alpha4/beta2 (Rattus norvegicus, UniProt P09483+P12390); experiment: Displacement of [3H]-epibatidine from alpha4beta2 nAChR in rat cortex hippocampus; assay type: tissue-based
Sequence of Neuronal acetylcholine receptor; alpha4/beta2 (Rattus norvegicus, UniProt P09483+P12390) (P09483 whole entry): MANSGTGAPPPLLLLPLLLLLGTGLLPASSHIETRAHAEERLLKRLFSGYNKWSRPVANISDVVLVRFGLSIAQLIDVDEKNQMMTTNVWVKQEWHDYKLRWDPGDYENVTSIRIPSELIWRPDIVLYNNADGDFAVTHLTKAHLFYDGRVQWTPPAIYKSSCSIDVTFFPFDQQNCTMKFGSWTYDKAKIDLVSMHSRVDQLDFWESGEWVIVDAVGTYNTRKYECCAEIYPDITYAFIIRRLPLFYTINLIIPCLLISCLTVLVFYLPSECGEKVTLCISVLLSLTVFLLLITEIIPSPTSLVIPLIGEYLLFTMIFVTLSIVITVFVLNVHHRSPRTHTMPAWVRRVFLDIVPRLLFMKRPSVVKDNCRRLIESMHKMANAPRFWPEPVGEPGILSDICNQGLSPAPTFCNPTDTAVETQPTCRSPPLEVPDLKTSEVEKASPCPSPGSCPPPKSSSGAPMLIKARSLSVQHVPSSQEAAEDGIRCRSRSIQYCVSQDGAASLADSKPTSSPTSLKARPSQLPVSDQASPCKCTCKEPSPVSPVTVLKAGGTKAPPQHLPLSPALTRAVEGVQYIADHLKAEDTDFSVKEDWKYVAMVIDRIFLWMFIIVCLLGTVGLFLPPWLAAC
Sequence of Neuronal acetylcholine receptor; alpha4/beta2 (Rattus norvegicus, UniProt P09483+P12390) (P12390 whole entry): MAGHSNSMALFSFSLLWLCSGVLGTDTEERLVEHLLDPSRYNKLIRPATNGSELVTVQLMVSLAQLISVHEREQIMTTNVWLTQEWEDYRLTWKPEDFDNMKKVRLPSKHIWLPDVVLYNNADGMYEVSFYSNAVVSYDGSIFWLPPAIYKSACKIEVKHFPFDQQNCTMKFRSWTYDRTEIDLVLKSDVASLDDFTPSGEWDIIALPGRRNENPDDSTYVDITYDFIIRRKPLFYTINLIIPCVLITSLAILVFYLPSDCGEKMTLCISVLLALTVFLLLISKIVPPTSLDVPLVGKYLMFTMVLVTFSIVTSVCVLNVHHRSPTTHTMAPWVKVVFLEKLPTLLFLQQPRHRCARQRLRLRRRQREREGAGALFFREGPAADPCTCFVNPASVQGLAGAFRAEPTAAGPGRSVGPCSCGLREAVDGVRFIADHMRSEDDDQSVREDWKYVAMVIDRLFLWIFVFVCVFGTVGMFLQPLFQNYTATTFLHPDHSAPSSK

Sequence of Neuronal acetylcholine receptor subunit alpha-7 (Rattus norvegicus, UniProt Q05941) (Q05941 whole entry): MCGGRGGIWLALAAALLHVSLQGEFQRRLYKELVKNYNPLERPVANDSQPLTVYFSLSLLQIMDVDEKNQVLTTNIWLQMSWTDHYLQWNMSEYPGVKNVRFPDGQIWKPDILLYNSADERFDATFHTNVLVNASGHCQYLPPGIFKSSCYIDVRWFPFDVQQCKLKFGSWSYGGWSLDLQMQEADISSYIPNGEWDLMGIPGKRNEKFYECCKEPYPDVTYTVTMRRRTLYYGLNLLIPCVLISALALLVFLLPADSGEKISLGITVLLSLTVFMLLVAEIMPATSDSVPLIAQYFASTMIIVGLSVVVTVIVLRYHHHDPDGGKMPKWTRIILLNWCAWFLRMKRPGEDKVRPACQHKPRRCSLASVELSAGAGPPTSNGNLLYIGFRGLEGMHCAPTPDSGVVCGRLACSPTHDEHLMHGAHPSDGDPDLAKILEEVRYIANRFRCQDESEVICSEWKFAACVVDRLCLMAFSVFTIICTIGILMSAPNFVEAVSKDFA
Sequence of Neuronal acetylcholine receptor; alpha4/beta2 (Homo sapiens, UniProt P17787+P43681) (P17787 whole entry): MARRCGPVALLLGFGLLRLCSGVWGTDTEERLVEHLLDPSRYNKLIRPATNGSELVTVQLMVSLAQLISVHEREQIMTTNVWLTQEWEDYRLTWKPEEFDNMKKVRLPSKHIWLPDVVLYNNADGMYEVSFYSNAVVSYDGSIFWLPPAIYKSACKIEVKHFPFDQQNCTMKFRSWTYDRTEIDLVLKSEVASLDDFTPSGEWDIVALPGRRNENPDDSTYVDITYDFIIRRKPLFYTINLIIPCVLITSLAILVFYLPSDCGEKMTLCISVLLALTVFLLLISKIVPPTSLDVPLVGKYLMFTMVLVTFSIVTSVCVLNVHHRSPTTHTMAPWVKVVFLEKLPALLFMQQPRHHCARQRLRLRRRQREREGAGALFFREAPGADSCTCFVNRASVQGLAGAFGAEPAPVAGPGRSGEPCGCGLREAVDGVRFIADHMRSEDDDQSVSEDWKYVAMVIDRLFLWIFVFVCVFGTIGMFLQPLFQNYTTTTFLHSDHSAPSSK
Sequence of Neuronal acetylcholine receptor; alpha4/beta2 (Homo sapiens, UniProt P17787+P43681) (P43681 whole entry): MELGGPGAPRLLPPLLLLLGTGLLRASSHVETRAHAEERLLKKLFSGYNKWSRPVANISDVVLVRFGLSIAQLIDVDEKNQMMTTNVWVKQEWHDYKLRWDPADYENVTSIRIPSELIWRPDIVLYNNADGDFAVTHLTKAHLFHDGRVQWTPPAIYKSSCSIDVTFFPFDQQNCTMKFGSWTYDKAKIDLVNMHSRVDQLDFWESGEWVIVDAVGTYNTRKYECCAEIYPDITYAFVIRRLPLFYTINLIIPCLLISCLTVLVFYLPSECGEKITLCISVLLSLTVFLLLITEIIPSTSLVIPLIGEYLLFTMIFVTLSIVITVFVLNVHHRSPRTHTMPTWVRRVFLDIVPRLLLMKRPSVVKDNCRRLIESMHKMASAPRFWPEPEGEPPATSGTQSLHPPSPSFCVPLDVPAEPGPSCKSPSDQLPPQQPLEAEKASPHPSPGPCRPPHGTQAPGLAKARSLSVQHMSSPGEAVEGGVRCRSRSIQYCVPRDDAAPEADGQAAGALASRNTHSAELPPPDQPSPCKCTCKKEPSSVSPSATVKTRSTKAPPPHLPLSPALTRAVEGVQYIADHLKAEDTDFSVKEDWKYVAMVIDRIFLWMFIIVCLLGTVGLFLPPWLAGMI
Sequence of Muscarinic acetylcholine receptor M3 (P20309 whole entry): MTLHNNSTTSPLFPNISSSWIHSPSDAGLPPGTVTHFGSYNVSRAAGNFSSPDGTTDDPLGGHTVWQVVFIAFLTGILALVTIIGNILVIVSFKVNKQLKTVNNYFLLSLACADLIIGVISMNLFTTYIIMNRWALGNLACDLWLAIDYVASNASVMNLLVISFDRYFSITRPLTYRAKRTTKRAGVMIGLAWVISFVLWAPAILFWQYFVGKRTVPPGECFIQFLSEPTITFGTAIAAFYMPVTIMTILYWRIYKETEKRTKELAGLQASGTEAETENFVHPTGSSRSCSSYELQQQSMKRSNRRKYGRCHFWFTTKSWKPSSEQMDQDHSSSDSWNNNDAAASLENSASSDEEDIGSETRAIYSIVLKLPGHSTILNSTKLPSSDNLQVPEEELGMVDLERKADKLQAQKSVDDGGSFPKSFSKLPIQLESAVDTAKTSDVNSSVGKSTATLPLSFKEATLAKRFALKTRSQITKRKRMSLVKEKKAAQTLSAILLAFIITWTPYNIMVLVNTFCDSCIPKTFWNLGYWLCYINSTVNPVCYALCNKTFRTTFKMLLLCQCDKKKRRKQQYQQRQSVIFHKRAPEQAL
Sequence of Neuronal acetylcholine receptor subunit alpha-7 (Homo sapiens, UniProt P36544) (P36544 whole entry): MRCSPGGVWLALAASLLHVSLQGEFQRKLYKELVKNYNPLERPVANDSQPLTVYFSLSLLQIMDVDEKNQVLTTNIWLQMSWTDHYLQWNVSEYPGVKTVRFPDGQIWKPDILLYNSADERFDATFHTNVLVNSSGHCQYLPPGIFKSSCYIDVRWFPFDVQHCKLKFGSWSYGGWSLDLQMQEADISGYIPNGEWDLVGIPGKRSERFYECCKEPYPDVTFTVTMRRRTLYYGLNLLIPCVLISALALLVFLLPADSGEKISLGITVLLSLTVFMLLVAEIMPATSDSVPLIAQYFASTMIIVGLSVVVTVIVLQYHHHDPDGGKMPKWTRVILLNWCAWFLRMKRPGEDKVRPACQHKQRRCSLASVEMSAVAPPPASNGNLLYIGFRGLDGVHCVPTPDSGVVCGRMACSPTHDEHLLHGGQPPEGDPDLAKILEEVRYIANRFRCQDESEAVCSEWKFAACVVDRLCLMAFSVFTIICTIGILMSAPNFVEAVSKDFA

SMILES	Ki [1] [µM]	Ki [2] [µM]	Ki [3] [µM]	Ki [4] [µM]	Ki [5] [µM]	Ki [6] [µM]	Ki [7] [µM]	Ki [8] [µM]	Ki [9] [µM]	Ki [10] [µM]
CNC(=O)OCC[N+](C)(C)C	44	0.023	0.15	–	–	–	–	–	–	–
CN1CCC[C@H]1[C@H]1CNC(=O)O1	–	–	–	> 100	> 100	> 100	> 100	> 100	–	–
CN(C)C(=O)OCC[N+](C)(C)C	–	0.02	1.2	–	–	–	–	–	–	–
CN(C)C[C@H]1CN(C)C(=O)O1	–	–	–	> 100	> 100	> 100	> 100	> 100	158	2.2
CN(C)C[C@@H]1CN(C)C(=O)O1	–	–	–	> 100	> 100	> 100	> 100	> 100	449	2.66
CN1C[C@@H](C[N+](C)(C)C)OC1=O	–	–	–	> 100	> 100	> 100	> 100	> 100	30	3.61
CN1C[C@H](C[N+](C)(C)C)OC1=O	–	–	–	> 100	> 100	> 100	> 100	> 100	18.6	3.1
CN(C)C[C@@H]1CNC(=O)O1	–	–	–	> 100	> 100	> 100	> 100	> 100	94	0.452
CN(C)C[C@H]1CNC(=O)O1	–	–	–	> 100	> 100	> 100	> 100	> 100	41	0.45
C[N+](C)(C)C[C@@H]1CNC(=O)O1	–	–	–	> 100	> 100	> 100	> 100	> 100	45	0.429
C[N+](C)(C)C[C@H]1CNC(=O)O1	–	–	–	> 100	> 100	> 100	> 100	> 100	47	0.396
CN1CCC[C@H]1COC(N)=O	–	–	–	> 100	> 100	> 100	> 100	> 100	78	0.693
C[N+]1(C)CCC[C@H]1COC(N)=O	–	–	–	> 100	> 100	> 100	> 100	> 100	1.8	1.06
CN1CCC[C@H]1[C@@H]1COC(=O)N1	–	–	–	> 100	> 100	> 100	> 100	> 100	64	9
CN1CCC[C@H]1[C@H]1COC(=O)N1	–	–	–	> 100	> 100	> 100	> 100	> 100	50	14
CN1CCC[C@H]1[C@@H]1CNC(=O)O1	–	–	–	> 100	> 100	> 100	> 100	> 100	–	–
CN(C)CCOC(=O)N(C)C [2-(DIMETHYLAMINO)ETHYL DIMETHYLCARBAMATE]	–	5.7	18	–	–	–	–	–	–	–
CC(C[N+](C)(C)C)OC(N)=O (stereo not drawn) [BETHANECHOL]	–	–	0.097	–	–	–	–	–	–	–
C[N+](C)(C)CCOC(N)=O [CARBAMOYLCHOLINE]	66	–	–	–	–	–	–	–	–	–
